# Test results taken from patent US9920030B2 (priority 2006, dated 2018).
# Like-named read-outs stand apart in the source and are kept apart here.
# What was measured:
# Format in all cases: in vivo
# [1] = test system: Phytophthora infestans (the causal agent of tomato late blight); experiment: whole plant or invertebrate; settings: for pest or weed control at 40 ppm: Phytophthora infestans, 144 h, read-out: Percent Disease Control, Test B
# [2] = test system: Phytophthora infestans (the causal agent of tomato late blight); experiment: whole plant or invertebrate; settings: for pest or weed control at 40 ppm: Phytophthora infestans, 96 h, read-out: Percent Disease Control, Test C
# [3] = test system: Plasmopara vilicola (the causal agent of grape downy mildew); experiment: Test A: grape downy mildew, test suspension sprayed on grape seedlings after inoculation, visual disease rating; settings: for pest or weed control at 40 ppm: Plasmopara, 144 h, read-out: Percent Disease Control, Test A
# Summary of the method: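 Curative spray: spores applied first, plants kept 24 h in saturated air at 20 °C and dried before treatment, then 5 days at 20 °C plus 24 h saturated. Suspension: acetone (3% of volume) in 1:1 acetone/water, 250 ppm Trem 014, sprayed to run-off (200 ppm ≈ 500 g/ha); visual 0–100 control rating.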
# [4] = compounds without asterisk (application rate not given), 100 = 100% disease control, 0 = no control relative to the controls
Compound,"Percent Disease Control, Test B [1, 4] [%]","Percent Disease Control, Test C [2, 4] [%]","Percent Disease Control, Test A [3, 4] [%]","Percent Disease Control, Test B ([1]; * tested at 40 ppm) [%]","Percent Disease Control, Test C ([2]; * tested at 40 ppm) [%]","Percent Disease Control, Test A ([3]; * tested at 40 ppm) [%]",further results
Cc1cc(C(F)(F)F)nn1CC(=O)N1CCC(c2nc(CN3C(=O)c4ccccc4C3=O)cs2)CC1 [Compound 191],100,99,99,,,,
Cc1cc(C(F)(F)F)nn1CC(=O)N1CCC(c2nc(C3=NOC4(CCCCc5ccccc54)C3)cs2)CC1 (stereo not drawn) [Compound 192],,,,100,99,99,
Cc1cc(C(F)(F)F)nn1CC(=O)N1CCC(c2nc(C3=NOC4(CCC4)C3)cs2)CC1 [Compound 193],,,,100,99,100,
Cc1cc(C(F)(F)F)nn1CC(=O)N1CCC(c2nc(C3=NOC4(CCN(C(=O)OC(C)(C)C)CC4)C3)cs2)CC1 [Compound 194],,,,100,99,94,
Cc1cc(C(F)(F)F)nn1CC(=O)N1CCC(c2nc(C3=NOC4(CCNCC4)C3)cs2)CC1 [Compound 195],92,80,48,,,,
CC(=O)N1CCC2(CC1)CC(c1csc(C3CCN(C(=O)Cn4nc(C(F)(F)F)cc4C)CC3)n1)=NO2 [Compound 196],,,,100,99,99,
CC(=O)N1N=C(c2csc(C3CCN(C(=O)Cn4nc(C(F)(F)F)cc4C)CC3)n2)CC1c1ccccc1 (stereo not drawn) [Compound 197],,,,100,90,89,
Cc1cc(C(F)(F)F)nn1CC(=O)N1CCC(c2nc(C3=NOC(C4OCCO4)C3)cs2)CC1 (stereo not drawn) [Compound 199],99,98,91,,,,
Cc1cc(C(F)(F)F)nn1CC(=O)N1CCC(c2nc(C3=NOC(C4(C)CO4)C3)cs2)CC1 (stereo not drawn) [Compound 200],100,90,80,,,,
Cc1ncsc1C1CC(c2csc(C3CCN(C(=O)Cn4nc(C(F)(F)F)cc4C)CC3)n2)=NO1 (stereo not drawn) [Compound 201],,,,100,99,99,
Cc1cc(C(F)(F)F)nn1CC(=O)N1CCC(c2nc(C3=NOC4c5ccccc5S(=O)(=O)C34)cs2)CC1 (stereo not drawn) [Compound 202],100,98,95,,,,
Cc1cc(C(F)(F)F)nn1CC(=O)N1CCC(c2nc(-c3ccon3)cs2)CC1 [Compound 203],,,,100,92,99,
Cc1cc(C(F)(F)F)nn1CC(=O)N1CCC(c2nc(C3=NOC(Oc4ccccc4)C3)cs2)CC1 (stereo not drawn) [Compound 204],,,,100,99,99,
Cc1ccccc1C1(C)CC(c2csc(C3CCN(C(=O)Cn4nc(C(F)(F)F)cc4C)CC3)n2)=NO1 (stereo not drawn) [Compound 205],,,,100,99,99,
COc1cccc(OC)c1C1CC(c2csc(C3CCN(C(=O)Cn4nc(C(F)(F)F)cc4C)CC3)n2)=NO1 (stereo not drawn) [Compound 206],,,,100,99,99,
Cc1cc(C(F)(F)F)nn1CC(=O)N1CCC(c2nc(CN3C(=O)CCC3=O)cs2)CC1 [Compound 207],83,0,40,,,,
Cc1cc(C(F)(F)F)nn1CC(=O)N1CCC(c2nc(CN3C(=O)OC(C)(C)C3=O)cs2)CC1 [Compound 208],64,0,79,,,,
Cc1cc(C(F)(F)F)nn1CC(=O)N1CCC(c2nc(C3=NOC4(c5ccccc5)CCCCC34)cs2)CC1 (stereo not drawn) [Compound 209],,,,100,90,99,
Cc1cc(C(F)(F)F)nn1CC(=O)N1CCC(c2nc(-c3cc(-c4ccccc4C(=O)O)on3)cs2)CC1 [Compound 210],100,83,91,,,,
Cc1cc(C(F)(F)F)nn1CC(=O)N1CCC(c2nc(C3=NOC(OC(C)(C)C)C3)cs2)CC1 (stereo not drawn) [Compound 211],,,,100,99,100,
Cc1cc(C(F)(F)F)nn1CC(=O)N1CCC(c2nc(C3=NOC4(CCN(c5ccccc5)CC4)C3)cs2)CC1 [Compound 212],,,,100,99,98,
Cc1cc(C(F)(F)F)nn1CC(=O)N1CCC(c2nc(C3=NOC(N4CCOC4=O)C3)cs2)CC1 (stereo not drawn) [Compound 213],,,,100,98,94,
"Cc1cc(C(F)(F)F)nn1CC(=O)N1CCC(c2nc(C3=NO[C@@H](c4c(F)cccc4F)C3)cs2)CC1 [Compound 214, 1-[4-[4-[(5R)-5-(2,6-difluorophenyl)-4,5-dihydro-3-isoxazolyl]-2-thiazolyl]-1-piperidinyl]-2-[5-methyl-3-(trifluoromethyl)-1H-pyrazol-1-yl]ethanone]",,,,,,,pest or weed control at 40 ppm [1]: 100%; pest or weed control at 40 ppm [2]: 99%; pest or weed control at 40 ppm ([3]; * tested at 40 ppm): 100%
Cc1cc(C(F)(F)F)nn1CC(=O)N1CCC(c2nc(C3=NOC(N4C(=O)CCC4=O)C3)cs2)CC1 (stereo not drawn) [Compound 215],,,,100,99,99,
Cc1cc(C(F)(F)F)nn1CC(=O)N1CCC(c2nc(C3=NOC(NC(=O)c4ccccc4C(=O)[O-])C3)cs2)CC1.[Na+] (stereo not drawn) [Compound 216],,,,100,99,100,
"Cc1cc(C(F)(F)F)nn1CC(=O)N1CC=C(c2nc(C3=NOC(c4ccccc4)C3)cs2)CC1 (stereo not drawn) [Compound 217, 1-[4-[4-(4,5-dihydro-5-phenyl-3-isoxazolyl)-2-thiazolyl]-3,6-dihydro-1(2H)-pyridinyl]-2-[5-methyl-3-(trifluoromethyl)-1H-pyrazol-1 yl]ethanone]",,,,,,,pest or weed control at 40 ppm [1]: 100%; pest or weed control at 40 ppm [2]: 99%; pest or weed control at 40 ppm ([3]; * tested at 40 ppm): 95%
Cc1cc(C(F)(F)F)nn1CC(=O)N1CCC(c2nc(C3=NOC4(C)C(=O)c5ccccc5C(O)=C34)cs2)CC1 (stereo not drawn) [Compound 218],,,,63,47,73,
Cc1cc(C(F)(F)F)nn1CC(=O)N1CCC(c2nc(C3=NOC(c4nc5ccccc5n4C)C3)cs2)CC1 (stereo not drawn) [Compound 219],100,99,100,,,,
COC(=O)c1ccccc1C1CC(c2csc(C3CCN(C(=O)Cn4nc(C(F)(F)F)cc4C)CC3)n2)=NO1 (stereo not drawn) [Compound 221],100,99,100,,,,
